Test results published in patent US7524880B2, “Crystalline form of a substituted pyrrolidine compound” (Theravance, Inc., priority 2004, dated 2009).

Biological target: T1, hM3 receptor (Homo sapiens, UniProt P20309)
T1 construct: expressed in transfected cells
Assay: Blockade of agonist-mediated calcium release via FLIPR
Type: cell-based
Details: CHO cells stably expressing the hM3 receptor, oxotremorine EC90
Text: C. Blockade of Agonist-Mediated Calcium Release Via FLIPR Assays
Muscarinic receptor subtypes (M1, M3 and M5 receptors), which couple to Gq proteins, activate the phospholipase C (PLC) pathway upon agonist binding to the receptor. As a result, activated PLC hydrolyzes phosphatyl inositol diphosphate (PIP2) to diacylglycerol (DAG) and phosphatidyl-1,4,5-triphosphate (IP3), which in turn generates calcium release from intracellular stores, i.e., endoplasmic and sarcoplasmic reticulum. […] This fluorescence event is measured in real time by the FLIPR, which detects the change in fluorescence from a monolayer of cells cloned with human M1 and M3, and chimpanzee M5 receptors. Antagonist potency is determined by the ability of antagonists to inhibit agonist-mediated increases in intracellular calcium. […]
To determine antagonist potency, the dose-dependent stimulation of intracellular Ca^2+ release for oxotremorine was first determined so that antagonist potency can later be measured against oxotremorine stimulation at an EC90 concentration. […]
The parameters used for the FLIPR were: exposure length of 0.4 seconds, laser strength of 0.5 watts, excitation wavelength of 488 nm, and emission wavelength of 550 nm. Baseline was determined by measuring the change in fluorescence for 10 seconds prior to addition of agonist. […]

T1 sequence (P20309 whole entry): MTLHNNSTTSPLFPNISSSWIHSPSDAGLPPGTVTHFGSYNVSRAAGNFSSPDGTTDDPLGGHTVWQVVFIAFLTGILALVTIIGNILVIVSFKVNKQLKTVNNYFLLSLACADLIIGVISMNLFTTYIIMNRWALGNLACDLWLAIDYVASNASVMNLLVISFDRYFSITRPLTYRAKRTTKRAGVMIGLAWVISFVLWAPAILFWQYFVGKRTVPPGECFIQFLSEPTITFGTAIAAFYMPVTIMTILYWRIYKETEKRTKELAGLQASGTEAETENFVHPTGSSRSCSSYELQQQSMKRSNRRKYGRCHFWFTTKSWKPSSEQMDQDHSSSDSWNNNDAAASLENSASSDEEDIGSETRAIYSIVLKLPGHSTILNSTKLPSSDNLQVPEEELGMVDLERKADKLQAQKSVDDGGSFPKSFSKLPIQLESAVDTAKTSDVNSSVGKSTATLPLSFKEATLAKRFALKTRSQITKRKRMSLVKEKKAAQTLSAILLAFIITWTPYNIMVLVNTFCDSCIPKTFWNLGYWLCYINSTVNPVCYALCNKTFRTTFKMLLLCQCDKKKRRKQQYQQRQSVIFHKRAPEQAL

Ki: < 5 nM
SMILES: CNCCCCCCCCN1CC[C@@H](C(C(N)=O)(c2ccccc2)c2ccccc2)C1 [compound of formula I, 2-[(S)-1-(8-methylaminooctyl)pyrrolidin-3-yl]-2,2-diphenylacetamide]
